The numbers were not newly measured in PMC4891657, “Orexin 2 Receptor Antagonism is Sufficient to Promote NREM and REM Sleep from Mouse to Man” (Scientific Reports, 2016), which cites them from elsewhere.

In one data set the test system is OX2R relative to OX1R. The settings on record: cited from earlier work.
The next data set has as its system OX2R. Also noted: method as in PMID 24376396, PMID 24368893. Particulars: mice, 50 mg/kg ref 37, 38; cited from earlier work.

For the compound `Cc1cc(C)nc(N2CC3CN(C(=O)c4c(F)cccc4-n4nccn4)CC3C2)n1` (centres unmarked) [JNJ-42847922], the “binding selectivity for OX2R relative to OX1R” value in the data set with OX2R relative to OX1R is on record as ~ 80 fold.
`Cc1cc(NC(=O)Nc2ccc(N(C)C)cc2)c2cc(F)cc(F)c2n1` [SB-408124]: the OX1R selective with OX2R relative to OX1R was ~ 64 x.
`CC1(C)OC[C@H](NC(=O)Nc2ccc(Br)cc2Br)[C@H](c2ccccc2)O1` [JNJ-10397049]: the OX2R selective in the data set with OX2R relative to OX1R is given as ~ 320 x.
Regarding `COc1ccnc(N2CCC3(CCCN(Cc4c[nH]c5ccccc45)C3=O)CC2)n1` [IPSU], the “calculated OX2R occupancy achieved” value in the data set with OX2R is reported as 48%. In addition, the OX2R/OX1R selectivity in the data set on OX2R relative to OX1R is on record as 6.2 fold.
